PMC9465178, “Cinnamaldehyde derivatives act as antimicrobial agents against Acinetobacter baumannii through the inhibition of cell division” (Frontiers in Microbiology, 2022)
In brackets after ≈: the same amount, converted by molar mass. Read-outs that look alike come from different tables or passages of the source. Peptide text beside a SMILES is read from it. * marks the point of attachment. βNA = c1ccc2cc(N*)ccc2c1

Key:
A. baumannii ATCC 19606 [1] = test: MIC, microbroth dilution (EUCAST); assay type: cell-based, Acinetobacter baumannii
Method: (§1) Reference bacterial strains were obtained from the American Type Culture Collection (ATCC). Vancomycin resistant Enterococcus faecium (VRE 734, wastewater isolate from the Venter Laboratory Collection) was isolated on Bile Esculin agar (Oxoid, Australia) containing 6 μg/mL vancomycin and identified using MALDI-TOF mass spectrometry (Bruker, Preston, Victoria, Australia, Australian Center for Antimicrobial Resistance Ecology). The Pseudomonas aeruginosa WT PAO1 and Escherichia coli with deletions of both acrA and acrB genes encoding drug efflux pumps were obtained from the Venter laboratory stock ([Welch et al., 2010]). The protocol for microbial growth was adopted from the European Committee on Antimicrobial Susceptibility Testing (EUCAST) ([European Committee for Antimicrobial Susceptibility Testing, 2016]).
(§2) Non-fastidious bacteria and clinical isolates were maintained in Mueller Hinton (MH) broth (Acumedia, United Kingdom) supplemented with 15% (v/v) glycerol (Chem-Supply, Australia), cultured on Mueller Hinton (MH) agar (Acumedia, United Kingdom) plated and incubated at 37°C. Fastidious bacteria were maintained in Brain Heart Infusion (BHI) broth (Acumedia, United Kingdom) supplemented with 15% (v/v) glycerol at −80°C. The fastidious bacteria were cultured on MH agar plates supplemented with 5% (v/v) lysed horse blood and 3% (v/v) fetal bovine serum and incubated at 30°C in the presence of 5% CO2. Drug susceptibility assays were carried out with the non-fastidious cultures grown in cation-adjusted Mueller Hinton (CaMH) broth (Becton Dickinson, France). Streptococcus pyogenes was grown in CaMH broth supplemented with 5% (v/v) lysed horse blood and 3% (v/v) fetal bovine serum whereas Enterococcus faecium was grown in BHI broth.
(§3) The minimum inhibitory concentrations (MICs) for all six compounds were determined using the microbroth dilution protocol as per EUCAST with an inoculum of approximately […] in an exponential growth phase ([European Committee for Antimicrobial Susceptibility Testing, 2016]). Bacterial suspension, 100 μL/well, was added to 100 μL/well of drug dilutions, then incubated for 18 h at 37°C. Fastidious bacterial suspensions were instead incubated at 30°C in the presence of 5% CO2. Bacterial growth was assessed by measuring the change in A600 nm between time 0 and 18 h (Cytation5® Cell Imaging Multi-Mode Reader, Bio-Tek®). Levofloxacin was used as the positive control. Assays were completed in duplicate in at least three independent experiments.

A. baumannii XDR UW 5075 = test: MIC, microbroth dilution (EUCAST); assay type: cell-based, Acinetobacter baumannii
Method: as §1, §2, §3

[2] = tested on: A. baumannii ATCC 19606 and UW 5075; test: Outer membrane permeabilisation, nitrocefin hydrolysis; assay type: cell-based, Acinetobacter baumannii; settings: PAβN at 100 or 200 µg/mL, nitrocefin hydrolysis at 490 nm
Method: A. baumannii ATCC 19606 and the extensively resistant strain UW 5075 were assayed for permeabilisation of the outer membrane by the efflux pump inhibitor PAβN. Nitrocefin was added to the cells that received no treatment (black circles), cells treated with the outer membrane permeabilizer polymyxin B (PMB, red squares) or PAβN at 100 µg/mL (light blue triangles) or 200 µg/mL (dark blue triangles). Nitrocefin hydrolysis by the periplasmic β-lactamase was observed as an increase in absorbance at 490 nm. Representative traces are shown from triplicate experiments performed on different days. Symbols represent the mean of triplicate readings ± SEM.

[3] = tested on: Pseudomonas aeruginosa WT PAO1; test: Antibacterial activity (MIC), microbroth dilution; assay type: cell-based; settings: Pseudomonas aeruginosa WT PAO1; unit inferred; read-out: Antibacterial activity (MIC)
Method: as §1, §2, §3

[4] = tested on: Klebsiella pneumoniae ATCC 13883; test: Antibacterial activity (MIC), microbroth dilution; assay type: cell-based; settings: ATCC13883; Klebsiella pneumoniae ATCC 13883; unit inferred; read-out: Antibacterial activity (MIC)
Method: as §1, §2, §3

[5] = tested on: Escherichia coli WT BW 25113; test: Antibacterial activity (MIC), microbroth dilution; assay type: cell-based
Method: as §1, §2, §3

[6] = tested on: Escherichia coli ATCC 35218; test: Antibacterial activity (MIC), microbroth dilution; assay type: cell-based; settings: ATCC35218; Escherichia coli ATCC 35218; unit inferred; read-out: Antibacterial activity (MIC)
Method: as §1, §2, §3

[7] = tested on: Klebsiella pneumoniae ATCC 33495; test: Antibacterial activity (MIC), microbroth dilution; assay type: cell-based; settings: ATCC33495; Klebsiella pneumoniae ATCC 33495; unit inferred; read-out: Antibacterial activity (MIC)
Method: as §1, §2, §3

[8] = tested on: Methicillin resistant Staphylococcus aureus; test: Antibacterial activity (MIC), microbroth dilution; assay type: cell-based; settings: ATCC 43300 / MRSA; Methicillin resistant Staphylococcus aureus (MRSA ATCC 43300); unit inferred; read-out: Antibacterial activity (MIC)
Method: as §1, §2, §3

[9] = tested on: Pseudomonas aeruginosa ATCC 27853; test: Antibacterial activity (MIC), microbroth dilution; assay type: cell-based; settings: ATCC27853; Pseudomonas aeruginosa ATCC 27853; unit inferred; read-out: Antibacterial activity (MIC)
Method: as §1, §2, §3

[10] = tested on: Enterobacter aerogenes ATCC 13408; test: Antibacterial activity (MIC), microbroth dilution; assay type: cell-based; settings: Klebsiella aerogenes, ATCC13408; Enterobacter aerogenes ATCC 13408; unit inferred; read-out: Antibacterial activity (MIC)
Method: as §1, §2, §3

[11] = tested on: Klebsiella pneumoniae ATCC 4352; test: Antibacterial activity (MIC), microbroth dilution; assay type: cell-based; settings: ATCC4352; Klebsiella pneumoniae ATCC 4352; unit inferred; read-out: Antibacterial activity (MIC)
Method: as §1, §2, §3

[12] = tested on: Streptococcus pyogenes ATCC 10389; test: Antibacterial activity (MIC), microbroth dilution; assay type: cell-based; settings: ATCC10389; Streptococcus pyogenes ATCC 10389; unit inferred; read-out: Antibacterial activity (MIC)
Method: as §1, §2, §3

[13] = tested on: Streptococcus pneumoniae (type 3, mucoid strain) ATCC 6303; test: Antibacterial activity (MIC), microbroth dilution; assay type: cell-based; settings: ATCC6303; Streptococcus pneumoniae ATCC 6303; unit inferred; read-out: Antibacterial activity (MIC)
Method: as §1, §2, §3

human red blood cells = test: Hemolysis assay; assay type: cell-based
Method: The hemolysis assay was performed using fresh human red blood cells (RBCs). […] These were performed in quadruplicate. Thereafter, 192 μL RBCs were added into all wells and the plates were incubated at 37°C under constant shaking (100 rpm) for 1 h. RBCs were precipitated by centrifugation of the plates (1,000× g for 3 min). An aliquot (100 μL) of each supernatant was transferred into a new 96-microwell plate and the A450 nm was determined using a PerkinElmer Enspire® plate reader. The fraction of intact RBC for each sample was determined as fraction of the intact RBCs for the sample without the addition of compounds (set at 100%) and plotted as a function of compound concentration.
A 1% (v/v) Triton X-100 was used to indicate complete RBC lysis (^‡). […] The assays were performed in quadruplicates. The plates were incubated at 37°C while constantly shaking at 100 rpm for 1 h. Intact RBCs were removed by centrifugation and the presence of hemolytic products in the supernatant were determined by measuring the absorbance at A450 nm. The results are presented in mean ± SEM. Statistical analysis was performed using one-way ANOVA and the asterisks (*) represent statistical significance (*p < 0.05; **p < 0.005; ***p < 0.0005; ****p < 0.0001).

E. coli = settings: cited from earlier work
E. coli FtsZ [14] = tested on: E. coli FtsZ; set-up: method as in Domadia et al., 2007; settings: ref Domadia et al., 2007, read-out: IC50, GTPase activity; cited from earlier work
E. coli FtsZ [15] = settings: E. coli FtsZ; ref Domadia et al., 2007; cited from earlier work
A. baumannii ATCC 19606 [16] = test: Cell division phenotype by light microscopy; assay type: cell-based, Acinetobacter baumannii; settings: divin at 64 μg/mL
Method: Morphological changes of bacteria when exposed to the compounds were assessed microscopically using the assay as previously described ([Chai et al., 2020]). Eppendorf® tubes were set up with A. baumannii ATCC 19606 as described for the time-kill assays. At time 0, 1, 3, 6, and 18 h, an aliquot of the bacterial suspension (1 μL) was transferred onto a glass slide and viewed under a light microscope (Olympus CX33®) at 100 × magnification. Representative images were captured using JENOPTIK GRYPHAX® imaging.
A 1 μL aliquot was taken out at varying timepoints (0, 1, 3, 6, and 18 h) and imaged by light microscopy. The images for 6 h are depicted here. […] The white arrow indicates “grooving” site, an indication of where separation of daughter cells should take place. Scale bar is 50 μm.
Four of the compounds (LXC 31, 33, 35 and 41) were tested at 1× and 2× their minimum inhibitory concentration (MIC) whereas LXC 36 and 43 were tested at 2× and 4× MIC. The phenotypic changes in A. baumannii morphology were analysed under a light microscope (100× magnification) at time 0, 1, 3, 6 and 18 h. Scale bar is 50 µm.

[17] = Acinetobacter baumannii, ATCC19606, A. baumannii ATCC 19606, 18 h, 37°C, read-out: MIC
[18] = Acinetobacter baumannii, XDRUW5075, 18 h
[19] = WTBW25113, Escherichia coli WT BW 25113, unit inferred, read-out: Antibacterial activity (MIC)

Compound: CC1(C)S[C@@H]2[C@H](NC(=O)[C@H](N)c3ccc(O)cc3)C(=O)N2[C@H]1C(=O)O [Amoxycillin, reference compound]
- MIC (A. baumannii ATCC 19606 [1]; [17]): 64 µg/mL (≈ 175 µM)
- MIC (A. baumannii XDR UW 5075; [18]): 1020 µg/mL (≈ 2800 µM)

Compound: NC(N)=NCCC[C@H](NC(=O)[C@@H](N)Cc1ccccc1)C(=O)Nc1ccc2ccccc2c1 [PAβN, phenylalanine arginine-β-naphthylamide] (H-Phe-Arg-βNA)
- Damage of the bacterial outer membrane [2]: does not damage the bacterial outer membrane

Compound: Colistin [reference compound]
- MIC (A. baumannii ATCC 19606 [1]; A. baumannii ATCC 19606, 18 h, 37°C): 2 µg/mL
- MIC (A. baumannii XDR UW 5075; A. baumannii XDR UW 5075, 18 h, 37°C): 2 µg/mL

Compound: CO[C@H]1/C=C/O[C@@]2(C)Oc3c(C)c(O)c4c(O)c(c(/C=N/N5CCN(C)CC5)c(O)c4c3C2=O)NC(=O)/C(C)=C\C=C\[C@H](C)[C@H](O)[C@@H](C)[C@@H](O)[C@@H](C)[C@H](OC(C)=O)[C@@H]1C [RIF, rifampicin, reference compound]
- MIC [3]: 32 µg/mL (≈ 38.9 µM)
- MIC [4]: 8 µg/mL (≈ 9.72 µM)
- MIC [5, 19]: > 16 µg/mL
- MIC [6]: > 16 µg/mL
- MIC [7]: 32 µg/mL (≈ 38.9 µM)
- MIC [8]: 32 µg/mL (≈ 38.9 µM)
- MIC [9]: 32 µg/mL (≈ 38.9 µM)
- MIC [10]: 16 µg/mL (≈ 19.4 µM)
- MIC [11]: > 64 µg/mL

Compound: C[C@H]1COc2c(N3CCN(C)CC3)c(F)cc3c(=O)c(C(=O)O)cn1c23 [Levofloxacin, reference compound]
- MIC (A. baumannii ATCC 19606 [1]; [17]): 0.5 µg/mL (≈ 1.38 µM)
- MIC (A. baumannii XDR UW 5075; [18]): 8 µg/mL (≈ 22.1 µM)
- MIC [3]: 0.5 µg/mL (≈ 1.38 µM)
- MIC [4]: 1 µg/mL (≈ 2.77 µM)
- MIC ([5]; Escherichia coli, WTBW25113, read-out: Antibacterial activity (MIC)): 0.25 µg/mL (≈ 0.692 µM)
- MIC [6]: 0.004 µg/mL (≈ 0.0111 µM)
- MIC [12]: 1 µg/mL (≈ 2.77 µM)
- MIC [7]: 1 µg/mL (≈ 2.77 µM)
- MIC [8]: 1 µg/mL (≈ 2.77 µM)
- MIC [9]: 1 µg/mL (≈ 2.77 µM)
- MIC [10]: 1 µg/mL (≈ 2.77 µM)
- MIC [13]: 1 µg/mL (≈ 2.77 µM)
- MIC [11]: 1 µg/mL (≈ 2.77 µM)

Compound: Triton X-100 [reference compound]
- Hemolytic activity (human red blood cells): completely disrupt the red blood cells

Compound: Cc1onc(-c2ccccc2)c1C(=O)N[C@@H]1C(=O)N2[C@@H]1SC(C)(C)[C@@H]2C(=O)O [OXA, oxacillin, reference compound]
- MIC [3]: > 64 µg/mL
- MIC [4]: > 64 µg/mL
- MIC [5, 19]: > 64 µg/mL
- MIC [6]: > 64 µg/mL
- MIC [7]: > 64 µg/mL
- MIC [8]: 16 µg/mL (≈ 39.9 µM)
- MIC [9]: > 64 µg/mL
- MIC [10]: > 16 µg/mL
- MIC [11]: > 64 µg/mL

Compound: CNC(C)C1CCC(N)C(OC2C(N)CC(N)C(OC3OCC(C)(O)C(NC)C3O)C2O)O1 (stereo not shown) [Gentamicin, reference compound]
- MIC (A. baumannii ATCC 19606 [1]; Acinetobacter baumannii, ATCC19606, 18 h): 16 µg/mL (≈ 33.5 µM)
- MIC (A. baumannii XDR UW 5075; [18]): > 1020 µg/mL

Compound: O=C/C=C/c1ccccc1 [cinnamaldehyde]
- MIC (E. coli; ref Domadia et al., 2007, Li et al., 2015a): 1000 µg/mL (≈ 7570 µM)
- Mechanism of action (bacteriostatic) (E. coli; ref Domadia et al., 2007): bacteriostatic
- IC50 (E. coli FtsZ [14]): 5.8 µM
- ED50, self-polymerization (E. coli FtsZ [15]): 6.9 µM

Compound: C[C@@H](O)[C@H]1C(=O)N2C(C(=O)O)=C(SCCN=CN)C[C@H]12 [Imipenem, reference compound]
- MIC (A. baumannii ATCC 19606 [1]; [17]): 1 µg/mL (≈ 3.34 µM)
- MIC (A. baumannii XDR UW 5075; [18]): 128 µg/mL (≈ 428 µM)

Compound: Cc1nc2ccccc2n1CCC(=O)NN=Cc1c(O)ccc2ccccc12 [divin, reference compound]
- Cell morphology (A. baumannii ATCC 19606 [16]): elongated cell shape
